Experimental data: US11505533B2, “Metabolically stable N-acylaminooxadiazoles useful as antibacterial agents” (MICROBIOTIX, INC., priority 2017, dated 2022)
Values after ≈ are worked out from the molar mass of the structure shown.

system: not listed separately; experiment: Aqueous solubility, nephelometry; conditions: water, kinetic from dmso stock

Structure (SMILES)	solubility
CC(C)(C)COc1ccc(C(=O)Nc2nnc(-c3ccc(F)cc3)o2)cc1 [compound 4284]	3.12 µM (≈ 1.15 µg/mL)
Cc1ccc(Oc2ccc(C(=O)Nc3nnc(-c4ccc(F)cc4)o3)cc2)cc1 [compound 4305]	3.13 µM (≈ 1.22 µg/mL)
Cc1cccc(Oc2ccc(C(=O)Nc3nnc(-c4ccc(F)cc4)o3)cc2)c1 [compound 4306]	6.25 µM (≈ 2.43 µg/mL)
COC(=O)C1=CCN(C(=O)Nc2nnc(-c3ccc(F)cc3)o2)CC1 [compound 4348]	25 µM (≈ 8.66 µg/mL)
CC(Oc1ccc(C(=O)Nc2nnc(-c3ccc(F)cc3)o2)cc1)c1ccccc1 (centres unmarked) [compound 4357]	3.1 µM (≈ 1.25 µg/mL)
O=C(Nc1nnc(-c2ccc(F)cc2)o1)N1CCN(c2ncccn2)CC1 [compound 4465]	12.5 µM (≈ 4.62 µg/mL)

system: E. coli TolC(−); experiment: TolC(−) MIC (NB); type: cell-based; conditions: Escherichia coli, read-out: TolC(−) MIC (μM)(NB)

Structure (SMILES)	MIC
CC(=O)N1CCN(C(=O)Nc2nnc(-c3ccc(F)cc3)o2)CC1 [compound 4198]	≥ 100 µM
O=C(Nc1nnc(-c2ccc(F)cc2)o1)N1CCN2CCCCC2C1 (centres unmarked) [compound 4199]	≥ 100 µM
O=C(Nc1nnc(-c2ccc(F)cc2)o1)N1CCCC2CCCCC21 (centres unmarked) [compound 4200]	50 µM (≈ 17.2 µg/mL)
O=C(Nc1nnc(-c2ccc(F)cc2)o1)N1CCN(C(=O)c2ccco2)CC1 [compound 4201]	28.1 µM (≈ 10.8 µg/mL)
O=C(Nc1nnc(-c2ccc(F)cc2)o1)c1ccc(Oc2ccccc2)cn1 [compound 4258]	35.4 µM (≈ 13.3 µg/mL)
CC(C)(C)COc1ccc(C(=O)Nc2nnc(-c3ccc(F)cc3)o2)cc1 [compound 4284]	70.7 µM (≈ 26.1 µg/mL)
CC(C)(C)OC(=O)N1CCC(Oc2ccc(C(=O)Nc3nnc(-c4ccc(F)cc4)o3)cc2)CC1 [compound 4289]	3.51 µM (≈ 1.69 µg/mL)
Cc1cncc(Oc2ccc(C(=O)Nc3nnc(-c4ccc(F)cc4)o3)cc2)n1 [compound 4290]	11.1 µM (≈ 4.36 µg/mL)
Cc1ccc(Oc2ccc(C(=O)Nc3nnc(-c4ccc(F)cc4)o3)cc2)cc1 [compound 4305]	0.781 µM (≈ 0.304 µg/mL)
Cc1cccc(Oc2ccc(C(=O)Nc3nnc(-c4ccc(F)cc4)o3)cc2)c1 [compound 4306]	0.984 µM (≈ 0.383 µg/mL)
O=C(Nc1nnc(-c2ccc(F)cc2)o1)c1cnc(Oc2ccccc2)nc1 [compound 4314]	6.25 µM (≈ 2.36 µg/mL)
COc1cc2c(cc1OC)CN(C(=O)Nc1nnc(-c3ccc(F)cc3)o1)CC2 [compound 4333]	12.5 µM (≈ 4.98 µg/mL)
O=C(Nc1nnc(-c2ccc(F)cc2)o1)N1CCCC1 [compound 4346]	100 µM (≈ 27.6 µg/mL)
COC(=O)C1=CCN(C(=O)Nc2nnc(-c3ccc(F)cc3)o2)CC1 [compound 4348]	12.5 µM (≈ 4.33 µg/mL)
CN1CCCN(C(=O)Nc2nnc(-c3ccc(F)cc3)o2)CC1 [compound 4349]	≥ 100 µM
O=C1CN(C(=O)Nc2nnc(-c3ccc(F)cc3)o2)CCN1 [compound 4350]	≥ 100 µM
CN1CCN(C(=O)Nc2nnc(-c3ccc(F)cc3)o2)CC1=O [compound 4351]	≥ 100 µM
CC(Oc1ccc(C(=O)Nc2nnc(-c3ccc(F)cc3)o2)cc1)c1ccccc1 (centres unmarked) [compound 4357]	1.56 µM (≈ 0.63 µg/mL)
O=C(Nc1nnc(-c2ccc(F)cc2)o1)N1CC2CC(C1)O2 [compound 4380]	≥ 100 µM
O=C(Nc1nnc(-c2ccc(F)cc2)o1)N1CC2CCC(C1)O2 [compound 4381]	100 µM (≈ 31.8 µg/mL)
COCCN1[C@H](C)CN(C(=O)Nc2nnc(-c3ccc(F)cc3)o2)C[C@@H]1C [compound 4406]	50 µM (≈ 18.9 µg/mL)

Structure (SMILES)	MIC
Cc1nc2c(s1)CN(C(=O)Nc1nnc(-c3ccc(F)cc3)o1)C2 [compound 4464]	≥ 100 µM
O=C(Nc1nnc(-c2ccc(F)cc2)o1)N1CCN(c2ncccn2)CC1 [compound 4465]	6.25 µM (≈ 2.31 µg/mL)
Cc1nnc(NC(=O)c2ccc(Oc3ccccc3)nc2)o1 [compound 4468]	≥ 100 µM
O=C(Nc1nnc(C2CCC2)o1)c1ccc(Oc2ccccc2)nc1 [compound 4469]	12.5 µM (≈ 4.2 µg/mL)
O=C(Nc1nnc(-c2ccc(F)cc2)o1)N1Cc2ncsc2C1 [compound 4497]	≥ 100 µM
Cc1ccccc1-c1nnc(NC(=O)c2ccc(Oc3ccccc3)nc2)o1 [compound 4498]	2.21 µM (≈ 0.823 µg/mL)
CC1CCN(C(=O)Nc2nnc(-c3ccc(F)cc3)o2)CC1 [compound 4684]	15.8 µM (≈ 4.79 µg/mL)
CC1(C)CCN(C(=O)Nc2nnc(-c3ccc(F)cc3)o2)CC1 [compound 4685]	12.5 µM (≈ 3.98 µg/mL)
O=C(Nc1nnc(-c2ccc(F)cc2)o1)N1CCC(F)(F)CC1 [compound 4686]	12.5 µM (≈ 4.08 µg/mL)
O=C(Nc1nnc(-c2ccc(F)cc2)o1)N1CCOCC1 [compound 4697]	100 µM (≈ 29.2 µg/mL)
O=C(Nc1nnc(-c2ccc(F)cc2)o1)N1CCC2CCCCC2C1 (centres unmarked) [compound 4698]	8.84 µM (≈ 3.04 µg/mL)
O=C(Nc1nnc(-c2ccc(F)cc2)o1)N1CCCCC1 [compound 4699]	25 µM (≈ 7.26 µg/mL)
O=C(Nc1nnc(-c2ccc(F)cc2)o1)N1CCCCCC1 [compound 4700]	15.8 µM (≈ 4.79 µg/mL)
COC(=O)C1CCN(C(=O)Nc2nnc(-c3ccc(F)cc3)o2)CC1 [compound 4701]	50 µM (≈ 17.4 µg/mL)
O=C(Nc1nnc(-c2ccc(F)cc2)o1)N1CCC(N2CCCCC2)CC1 [compound 4702]	> 100 µM
O=C(Nc1nnc(-c2ccc(F)cc2)o1)N1CCC(O)CC1 [compound 4734]	100 µM (≈ 30.6 µg/mL)
O=C(Nc1nnc(-c2ccc(F)cc2)o1)N1CCC(C(F)(F)F)C1 (centres unmarked) [compound 4735]	22.3 µM (≈ 7.67 µg/mL)
CC1=C(C)CN(C(=O)Nc2nnc(-c3ccc(F)cc3)o2)CC1 [compound 4738]	7 µM (≈ 2.21 µg/mL)
O=C(Nc1nnc(-c2ccc(F)cc2)o1)N1CCC2(CC1)COC2 [compound 4739]	100 µM (≈ 33.2 µg/mL)
O=C(Nc1nnc(-c2ccc(F)cc2)o1)N1CCC(C2COC2)CC1 [compound 4740]	100 µM (≈ 34.6 µg/mL)
O=C(Nc1nnc(-c2ccc(F)cc2)o1)N1CCC(Nc2ccccc2)CC1 [compound 4741]	11.1 µM (≈ 4.23 µg/mL)

Structure (SMILES)	MIC
CC1CCCN(C(=O)Nc2nnc(-c3ccc(F)cc3)o2)C1 (centres unmarked) [compound 4767]	11.1 µM (≈ 3.38 µg/mL)
CC1CC(C)CN(C(=O)Nc2nnc(-c3ccc(F)cc3)o2)C1 (centres unmarked) [compound 4768]	6.25 µM (≈ 1.99 µg/mL)
O=C(Nc1nnc(C2COc3ccccc3O2)o1)c1ccc(Oc2ccccc2)nc1 (centres unmarked) [compound 4770]	4.42 µM (≈ 1.84 µg/mL)
O=C(Nc1nnc(-c2ccc(F)cc2)o1)N1CCCC(F)(F)CC1 [compound 4776]	12.5 µM (≈ 4.25 µg/mL)
O=C(Nc1nnc(-c2ccc(F)cc2)o1)N1CCCc2ccccc2C1 [compound 4777]	17.7 µM (≈ 6.23 µg/mL)
COC(=O)c1ccc(OC2CCN(C(=O)Nc3nnc(-c4ccc(F)cc4)o3)CC2)cc1 [compound 4778]	19.8 µM (≈ 8.74 µg/mL)
COC(=O)c1ccc(CC2CCN(C(=O)Nc3nnc(-c4ccc(F)cc4)o3)CC2)cc1 [compound 4779]	12.5 µM (≈ 5.48 µg/mL)
O=C(Nc1nnc(Cc2ccc(F)cc2)o1)c1ccc(Oc2ccccc2)nc1 [compound 4802]	6.25 µM (≈ 2.44 µg/mL)
CC1=CCN(C(=O)Nc2nnc(C3CCCCC3)o2)CC1 [compound 4805]	25 µM (≈ 7.26 µg/mL)
O=C(Nc1nnc(C2CCCCC2)o1)N1CC=C(C(F)(F)F)CC1 [compound 4806]	12.5 µM (≈ 4.3 µg/mL)
COCC1=CCN(C(=O)Nc2nnc(-c3ccc(F)cc3)o2)CC1 [compound 4843]	25 µM (≈ 8.31 µg/mL)
CC1(C)CCCN(C(=O)Nc2nnc(-c3ccc(F)cc3)o2)CC1 [compound 4922]	12.5 µM (≈ 4.15 µg/mL)
O=C(Nc1nnc(C2CCCCC2)o1)c1ccc(OC2CCCCC2)nc1 [compound 4925]	1.56 µM (≈ 0.578 µg/mL)
O=C(Nc1nnc(C2COc3ccccc3O2)o1)c1ccc(OC2CCCCC2)nc1 (centres unmarked) [compound 4926]	1.56 µM (≈ 0.659 µg/mL)
O=C(Nc1nnc(-c2ccc(F)cc2)o1)N1CCC(F)(F)C1 [compound 4930]	19.8 µM (≈ 6.18 µg/mL)
O=C(Nc1nnc(-c2ccc(F)cc2)o1)N1CCC2(C1)CC2(F)F (centres unmarked) [compound 4931]	28.1 µM (≈ 9.49 µg/mL)
O=C(Nc1nnc(-c2ccc(F)cc2)o1)N1CC(C(F)F)C2(CC2)C1 (centres unmarked) [compound 4932]	17.7 µM (≈ 6.23 µg/mL)
CCC1CCN(C(=O)Nc2nnc(-c3ccc(F)cc3)o2)CC1 [compound 4933]	6.25 µM (≈ 1.99 µg/mL)
CCCC1CCN(C(=O)Nc2nnc(-c3ccc(F)cc3)o2)CC1 [compound 4934]	6.25 µM (≈ 2.08 µg/mL)
O=C(Nc1nnc(-c2ccc(F)cc2)o1)N1CCC=CCC1 [compound 4935]	12.5 µM (≈ 3.78 µg/mL)
O=C(Nc1nnc(-c2ccc(F)cc2)o1)N1CCc2ccccc2CC1 [compound 4936]	6.25 µM (≈ 2.2 µg/mL)

Structure (SMILES)	MIC
CC(C)(C)C1CCCN(C(=O)Nc2nnc(-c3ccc(F)cc3)o2)CC1 (centres unmarked) [compound 4937]	11.1 µM (≈ 4 µg/mL)
CC(C)(C)C1CCN(C(=O)Nc2nnc(-c3ccc(F)cc3)o2)CC1 [compound 4938]	4.96 µM (≈ 1.72 µg/mL)
O=C(Nc1nnc(-c2ccc(F)cc2)o1)N1CCC2(CCCC2)CC1 [compound 4939]	6.25 µM (≈ 2.15 µg/mL)
O=C(Nc1nnc(-c2ccc(F)cc2)o1)N1CCc2sccc2C1 [compound 4940]	3.13 µM (≈ 1.08 µg/mL)
CCOC1CCN(C(=O)Nc2nnc(-c3ccc(F)cc3)o2)CC1 [compound 4993]	44.5 µM (≈ 14.9 µg/mL)
CC(C)OC1CCN(C(=O)Nc2nnc(-c3ccc(F)cc3)o2)CC1 [compound 4994]	44.5 µM (≈ 15.5 µg/mL)
CC(C)(C)OC1CCN(C(=O)Nc2nnc(-c3ccc(F)cc3)o2)CC1 [compound 4995]	25 µM (≈ 9.06 µg/mL)
O=C(Nc1nnc(-c2ccc3c(c2)CCC3)o1)N1CCC(Cl)=C(Cl)C1 [compound 5154]	1.75 µM (≈ 0.664 µg/mL)
O=C(Nc1nnc(-c2ccc3c(c2)CCC3)o1)N1CC=C(C(F)(F)F)CC1 [compound 5155]	1.97 µM (≈ 0.745 µg/mL)
O=C(Nc1nnc(-c2ccc(F)cc2)o1)N1CCC(c2ccccc2)CC1 [compound 5199]	5.57 µM (≈ 2.04 µg/mL)
C[C@@H]1CCCN(C(=O)Nc2nnc(-c3ccc(F)cc3)o2)C1 [compound 5200]	12.5 µM (≈ 3.8 µg/mL)
O=C(Nc1nnc(-c2ccc(F)cc2)o1)N1CCCC(O)C1 (centres unmarked) [compound 5201]	> 100 µM
Cc1cc(F)cc(C)c1-c1nnc(NC(=O)N2CCc3ccccc3C2)o1 [compound 5202]	7.02 µM (≈ 2.57 µg/mL)
Cc1cc(F)cc(C)c1-c1nnc(NC(=O)N2CCC(Cl)=C(Cl)C2)o1 [compound 5203]	0.781 µM (≈ 0.301 µg/mL)
Cc1cc(F)cc(C)c1-c1nnc(NC(=O)N2CC=C(C(F)(F)F)CC2)o1 [compound 5204]	4.96 µM (≈ 1.91 µg/mL)
CC(C)C1CCCN(C(=O)Nc2nnc(-c3ccc(F)cc3)o2)C1 (centres unmarked) [compound 5212]	7.02 µM (≈ 2.33 µg/mL)
Cc1ccccc1-c1nnc(NC(=O)N2CCc3ccccc3C2)o1 [compound 5214]	7.02 µM (≈ 2.35 µg/mL)
Cc1ccccc1-c1nnc(NC(=O)N2CCC(Cl)=C(Cl)C2)o1 [compound 5215]	1.56 µM (≈ 0.551 µg/mL)
CC1=CCN(C(=O)Nc2nnc(-c3c(C)cc(F)cc3C)o2)CC1 [compound 5216]	12.5 µM (≈ 4.13 µg/mL)
O=C(Nc1nnc(-c2ccc(N3CCCC3)cc2)o1)N1CCc2ccccc2C1 [compound 5222]	25 µM (≈ 9.74 µg/mL)
O=C(Nc1nnc(-c2ccc(N3CCCC3)cc2)o1)N1CC=C(C(F)(F)F)CC1 [compound 5223]	11.1 µM (≈ 4.54 µg/mL)

system: not listed separately; experiment: Mammalian cell cytotoxicity; conditions: not given

Structure (SMILES)	CC50
Cc1ccc(Oc2ccc(C(=O)Nc3nnc(-c4ccc(F)cc4)o3)cc2)cc1 [compound 4305]	32 µM
Cc1cccc(Oc2ccc(C(=O)Nc3nnc(-c4ccc(F)cc4)o3)cc2)c1 [compound 4306]	> 100 µM
COC(=O)C1=CCN(C(=O)Nc2nnc(-c3ccc(F)cc3)o2)CC1 [compound 4348]	> 100 µM
CC(Oc1ccc(C(=O)Nc2nnc(-c3ccc(F)cc3)o2)cc1)c1ccccc1 (centres unmarked) [compound 4357]	45 µM
O=C(Nc1nnc(-c2ccc(F)cc2)o1)N1CCN(c2ncccn2)CC1 [compound 4465]	> 100 µM
Cc1ccccc1-c1nnc(NC(=O)c2ccc(Oc3ccccc3)nc2)o1 [compound 4498]	> 100 µM

system: not listed separately; experiment: Microsomal stability + NADPH; conditions: mouse liver microsomes, 0.5 hr at 37° C.

Structure (SMILES)	Microsomal Stability + NADPH % degraded
Cc1ccc(Oc2ccc(C(=O)Nc3nnc(-c4ccc(F)cc4)o3)cc2)cc1 [compound 4305]	<30%
Cc1cccc(Oc2ccc(C(=O)Nc3nnc(-c4ccc(F)cc4)o3)cc2)c1 [compound 4306]	<30%
